ChEMBL document CHEMBL3797167, “Development of a peptide-based inducer of nuclear receptors degradation” (Bioorg Med Chem Lett, 2016)
Activity calls are given as the source filed them. The calls are words filed in the database; no cut-off is given here.

Legend:
Format in all cases: cell-based
[1] = target: T1, Estrogen receptor (Homo sapiens) (UniProt P03372); test: Induction of ERalpha degradation in human MCF7 cells at 3 to 10 uM after 6 hrs by Western blot analysis
T1 sequence (whole entry): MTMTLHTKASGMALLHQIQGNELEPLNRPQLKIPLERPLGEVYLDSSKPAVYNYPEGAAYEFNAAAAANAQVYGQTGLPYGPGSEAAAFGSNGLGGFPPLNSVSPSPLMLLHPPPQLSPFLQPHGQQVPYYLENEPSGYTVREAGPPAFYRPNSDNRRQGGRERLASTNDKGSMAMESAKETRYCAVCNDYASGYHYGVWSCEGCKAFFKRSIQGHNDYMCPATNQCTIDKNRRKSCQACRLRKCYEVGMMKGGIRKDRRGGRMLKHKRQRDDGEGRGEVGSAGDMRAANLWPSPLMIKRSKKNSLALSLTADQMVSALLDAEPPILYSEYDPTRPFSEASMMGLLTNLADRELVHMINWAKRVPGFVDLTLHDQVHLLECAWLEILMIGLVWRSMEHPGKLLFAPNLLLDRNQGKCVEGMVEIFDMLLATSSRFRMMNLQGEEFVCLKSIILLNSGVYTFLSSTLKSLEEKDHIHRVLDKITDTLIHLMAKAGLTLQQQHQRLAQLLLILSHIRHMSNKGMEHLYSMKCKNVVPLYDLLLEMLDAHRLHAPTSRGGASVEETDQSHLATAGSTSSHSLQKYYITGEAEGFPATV

MCF7 = test: Cytotoxicity against human MCF7 cells at 10 uM after 6 hrs; details: mcf7, 6 h
[2] = target: T1, Estrogen receptor (Homo sapiens); test: Induction of ERalpha degradation in human MCF7 cells assessed as ERalpha/actin ratio level at 10 uM after 6 hrs by Western blot analysis (reference value: 100%)
[3] = target: T1, Estrogen receptor (Homo sapiens); test: Induction of ERalpha degradation in human MCF7 cells assessed as ERalpha/actin ratio level at 5 uM after 6 hrs by Western blot analysis (reference value: 100%)
[4] = target: T1, Estrogen receptor (Homo sapiens); test: Induction of ERalpha degradation in human MCF7 cells assessed as ERalpha/actin ratio level at 3 uM after 6 hrs by Western blot analysis (reference value: 100%)
[5] = target: T1, Estrogen receptor (Homo sapiens); test: Induction of ERalpha degradation in human MCF7 cells at 0.3 to 3 uM after 6 hrs by Western blot analysis
[6] = target: T1, Estrogen receptor (Homo sapiens); test: Induction of ERalpha degradation in human MCF7 cells assessed as ERalpha/actin ratio level at 0.3 uM after 6 hrs by Western blot analysis (reference value: 100%)
[7] = target: T1, Estrogen receptor (Homo sapiens); test: Induction of ERalpha degradation in human MCF7 cells assessed as ERalpha/actin ratio level at 1 uM after 6 hrs by Western blot analysis (reference value: 100%)
[8] = target: T1, Estrogen receptor (Homo sapiens); test: Induction of ERalpha degradation in human MCF7 cells at 0.1 to 1 uM after 6 hrs by Western blot analysis
[9] = target: Baculoviral IAP repeat-containing protein 2 (Homo sapiens) (UniProt Q13490); test: Induction of cIAP1 degradation in human MCF7 cells at 1 uM after 6 hrs by Western blot analysis
Chain of Baculoviral IAP repeat-containing protein 2 (Homo sapiens) (Q13490 whole entry): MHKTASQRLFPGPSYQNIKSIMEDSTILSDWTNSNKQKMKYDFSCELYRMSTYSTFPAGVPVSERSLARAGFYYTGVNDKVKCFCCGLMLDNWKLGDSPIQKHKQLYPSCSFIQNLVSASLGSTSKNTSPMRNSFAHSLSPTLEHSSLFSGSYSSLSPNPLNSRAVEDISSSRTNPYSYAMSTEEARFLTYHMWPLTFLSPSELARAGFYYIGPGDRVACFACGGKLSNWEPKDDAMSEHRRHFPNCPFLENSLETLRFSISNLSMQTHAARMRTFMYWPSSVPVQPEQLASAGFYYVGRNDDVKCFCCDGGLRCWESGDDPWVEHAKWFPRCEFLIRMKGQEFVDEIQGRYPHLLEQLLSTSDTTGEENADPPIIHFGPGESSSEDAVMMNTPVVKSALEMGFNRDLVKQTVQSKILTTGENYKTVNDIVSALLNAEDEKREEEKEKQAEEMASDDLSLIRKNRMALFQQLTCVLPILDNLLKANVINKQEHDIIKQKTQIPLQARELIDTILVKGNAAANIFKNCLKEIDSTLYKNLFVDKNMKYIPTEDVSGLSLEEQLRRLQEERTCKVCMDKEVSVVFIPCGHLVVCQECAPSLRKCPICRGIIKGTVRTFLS

[10] = target: T1, Estrogen receptor (Homo sapiens); test: Induction of ERalpha degradation in human MCF7 cells assessed as ERalpha/actin ratio level at 0.1 uM after 6 hrs by Western blot analysis (reference value: 100%)

| Activity [1] | Activity [2] | Activity [3] | Activity [4] | Activity [5] | Activity [6] | Activity [7] | Activity [8] | Activity [9] | Activity [10] | SMILES | Activity (MCF7) |
| --- | --- | --- | --- | --- | --- | --- | --- | --- | --- | --- | --- |
| inactive | 236% | 99% | 96% | – | – | – | – | – | – | CC[C@H](C)[C@H]1NC(=O)[C@@H](NC(=O)[C@H](CCCNC(=N)N)NC(=O)COCCOCCNC(=O)[C@@H](NC(=O)[C@@H]2CCCN2C(=O)[C@H](NC(=O)[C@H](C)NC)C2CCCCC2)C(c2ccccc2)c2ccccc2)CSSC[C@H](C(=O)N[C@H](CCCNC(=N)N)C(=O)N[C@H](CC(C)(C)C)C(=O)N[C@H](CC(C)C)C(=O)N[C@H](CCC(N)=O)C(=O)NCC(=O)NCC(=O)NCC(=O)N[C@H](CCCNC(=N)N)C(=O)N[C@H](CCCNC(=N)N)C(=O)N[C@H](CCCNC(=N)N)C(=O)N[C@H](CCCNC(=N)N)C(=O)N[C@H](CCCNC(=N)N)C(=O)N[C@H](CCCNC(=N)N)C(=O)N[C@@H](CCCNC(=N)N)C(N)=O)NC(=O)[C@@H](CC(C)C)NC1=O | Toxic |
| – | – | – | 95% | inactive | 109% | 114% | – | – | – | CC[C@H](C)[C@H]1NC(=O)[C@@H](NC(=O)[C@@H](N)CCCCNC(=O)[C@@H](NC(=O)[C@@H]2CCCN2C(=O)[C@H](NC(=O)[C@H](C)NC)C2CCCCC2)C(c2ccccc2)c2ccccc2)CSSC[C@H](C(=O)N[C@H](CCCNC(=N)N)C(=O)N[C@H](CC(C)(C)C)C(=O)N[C@H](CC(C)C)C(=O)N[C@H](CCC(N)=O)C(=O)NCC(=O)NCC(=O)NCC(=O)N[C@H](CCCNC(=N)N)C(=O)N[C@H](CCCNC(=N)N)C(=O)N[C@H](CCCNC(=N)N)C(=O)N[C@H](CCCNC(=N)N)C(=O)N[C@H](CCCNC(=N)N)C(=O)N[C@H](CCCNC(=N)N)C(=O)N[C@@H](CCCNC(=N)N)C(N)=O)NC(=O)[C@@H](CC(C)C)NC1=O | – |
| – | – | – | – | – | 100% | 92% | inactive | Active | 105% | CC[C@H](C)[C@H]1NC(=O)[C@@H](NC(=O)[C@H](N)CCCCNC(=O)COCCOCCNC(=O)[C@@H](NC(=O)[C@@H]2CCCN2C(=O)[C@H](NC(=O)[C@H](C)NC)C2CCCCC2)C(c2ccccc2)c2ccccc2)CSSC[C@H](C(=O)N[C@H](CCCNC(=N)N)C(=O)N[C@H](CC(C)(C)C)C(=O)N[C@H](CC(C)C)C(=O)N[C@H](CCC(N)=O)C(=O)NCC(=O)NCC(=O)NCC(=O)N[C@H](CCCNC(=N)N)C(=O)N[C@H](CCCNC(=N)N)C(=O)N[C@H](CCCNC(=N)N)C(=O)N[C@H](CCCNC(=N)N)C(=O)N[C@H](CCCNC(=N)N)C(=O)N[C@H](CCCNC(=N)N)C(=O)N[C@@H](CCCNC(=N)N)C(N)=O)NC(=O)[C@@H](CC(C)C)NC1=O | – |
